Measured values from article PMC9719539, “Single-molecule characterization of subtype-specific β1 integrin mechanics” (Nature Communications, 2022).

Assays:
[1] = biological target: integrin α5β1 (EO state); settings: extended-open conformation; read-out: affinity for α5β1 in extended-open conformation; cited from earlier work
Description: The response of the cytoskeletal machinery is thus not predetermined by cell type, but is highly regulatable by the type of ligand outside the cell. […] Further, by using 264 the specific panels of antibodies, the authors claim that RGD-based adhesion and spreading is dominated by 265 aVb1 integrin in their RGD-dependent system.

[2] = test system: BJ-5ta fibroblasts; experiment: Spreading of BJ-5ta fibroblasts on linear GRRGD-TGT (peer review file); type: cell-based, human; settings: 100 nM, 1 h
Protocol: RGT-TGTs is reproduced using the linear RGD, showing that the high tension threshold for cell spreading is not an artifact of ligand cyclization.
Figure R5 | BJ-5ta fibroblasts on linear RGD ligand surfaces. Cells were seeded for one hour on TGTs conjugated […]
with a linear RGD peptide ([…]; GRRGD-TGT). GRRGD-TGT (100 nM) was immobilized on […]
PEG-passivated and neutravidin functionalized surface. GRRGD-54pN was incubated without neutravidin for control. Images (left) and cell area measured from RICM images (right) are shown. Scale bar, 10 μm. […]

[3] = test system: BJ-5ta cells; experiment: Percentage of spread cells / cell spreading on TGT surfaces; type: cell-based, human
Protocol: Glass coverslips were densely PEGylated to minimize non-specific interactions such as the binding of cell-secreted extracellular matrix proteins. Coverslips cleaned by piranha etching solution (a 3:1 mixture of sulfuric acid and hydrogen peroxide) were incubated in silanization solution (UCT, 1760-24-3; 2% aminosilane and 5% acetic acid in methanol) for 30 min and reacted with a mixture of Polyethylene glycol (PEG) with and without biotin (1:19, 150 mg/ml; Laysan Bio, Biotin-PEG-SVA-5000 and MPEG-SVA-5000) for 4 h. Surfaces were washed thoroughly and dried using nitrogen gas after each step. A 3D-printed dish (PLA) or a silicon gasket (Grace Bio Labs, 103280) was attached to the coverslip to form a dish. Neutravidin (Thermo Fisher scientific, 31000; 0.4 mg/ml) was added to the dish for 10 min and washed out thoroughly. The dish was emptied and a droplet (3 µL) of TGT solution (100 nM unless specified otherwise) was placed on the coverslip for 10 min in a humid condition to locally immobilize TGT. For the lateral drift correction for time-resolved TGT rupture analysis, biotin-coated gold nanoparticles (Luna Nanotech, GNP-BIOT-100-2-04; 100 nm) were sparsely immobilized as fiducial markers. For protein ligand coating, protein (50 ug/ml in PBS) was incubated in glass bottomed imaging dishes for 1 h at RT without additional passivation.
The cells were gently harvested by washing in PBS for 1 min, incubating with 0.05% trypsin for 3 min, and then neutralizing with cell culture medium (FBS 10%). The cells were spun down and resuspended with Leibovitz’s L-15 Medium (Gibco, 21083027) supplemented with 2 g/L glucose, then seeded on the TGT surface at an approximate density of 30 cells/mm^2. For integrin inhibition experiments, cells were incubated with Fab for 5 min before seeding. For cell immobilization experiments, cells were incubated with 1 nM Cholesterol-PEG-Biotin (Nanosoft Polymers, 3084-2000) for 5 min, followed by washes by centrifugation to remove biotin in solution before seeding. The imaging area was humidified and the temperature was maintained at 37 °C. A Nikon Eclipse Ti microscope equipped with Xenon arc lamp, Nikon perfect focus system, custom total internal reflection fluorescence microscopy (TIRFM) module, and custom reflection interference contrast microscopy (RICM) module was driven by Elements software. Dark regions in RICM show where cells have closely adhered to the surface (≪300 nm gap). Nikon 10X objective (CFI60 Plan Fluor) and 60X objective (CFI60 Apochromat TIRF) with DIC filter sets were used. […] Images were recorded using an electron-multiplying charge-coupled device (EMCCD; Andor iXon 888).
Single-cell data were obtained from multiple independent sample preparations for each condition as specified. Percentage of spread cells was obtained from three independent experiments. Statistical analyses were performed using MATLAB software. Two-sided (two sample) t-test was used for two group comparisons. Each group was compared with the control group unless specified otherwise. Representative micrographs are selected from at least two independent experiments.

[4] = biological target: T1, EO state of integrin α5β1 (Homo sapiens, UniProt P05556+P08648); experiment: Intrinsic affinity for EO state of α5β1 stabilized by 12G10 Fab; type: binding; settings: 2 µM 12G10 Fab versus basal
T1 construct: endogenous in cells; host or cells: K562 wild type
T1 sequence (P08648 42-894 limits assumed): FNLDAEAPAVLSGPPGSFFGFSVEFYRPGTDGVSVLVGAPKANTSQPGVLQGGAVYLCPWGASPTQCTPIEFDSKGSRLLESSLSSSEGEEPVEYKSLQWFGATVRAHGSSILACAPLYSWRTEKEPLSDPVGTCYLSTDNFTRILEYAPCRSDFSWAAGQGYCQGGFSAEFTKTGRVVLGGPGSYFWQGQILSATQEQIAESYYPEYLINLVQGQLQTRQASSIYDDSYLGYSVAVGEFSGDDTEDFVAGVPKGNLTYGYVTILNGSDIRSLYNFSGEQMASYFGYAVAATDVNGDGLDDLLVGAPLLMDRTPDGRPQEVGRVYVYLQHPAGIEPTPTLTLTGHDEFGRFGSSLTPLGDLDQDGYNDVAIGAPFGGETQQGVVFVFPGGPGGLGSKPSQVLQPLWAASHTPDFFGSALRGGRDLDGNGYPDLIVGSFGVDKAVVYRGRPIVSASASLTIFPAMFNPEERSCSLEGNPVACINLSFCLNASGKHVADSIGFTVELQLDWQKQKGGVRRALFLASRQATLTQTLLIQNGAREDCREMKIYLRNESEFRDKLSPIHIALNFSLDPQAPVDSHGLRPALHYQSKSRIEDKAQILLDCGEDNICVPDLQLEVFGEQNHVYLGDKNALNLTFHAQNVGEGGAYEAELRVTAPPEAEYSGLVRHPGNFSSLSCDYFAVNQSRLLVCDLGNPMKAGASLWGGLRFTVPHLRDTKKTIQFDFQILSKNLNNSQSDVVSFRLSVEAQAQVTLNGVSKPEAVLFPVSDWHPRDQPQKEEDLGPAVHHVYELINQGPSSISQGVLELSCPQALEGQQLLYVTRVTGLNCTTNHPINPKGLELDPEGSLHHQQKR
T1 sequence (P08648 895-1049 partner limits assumed): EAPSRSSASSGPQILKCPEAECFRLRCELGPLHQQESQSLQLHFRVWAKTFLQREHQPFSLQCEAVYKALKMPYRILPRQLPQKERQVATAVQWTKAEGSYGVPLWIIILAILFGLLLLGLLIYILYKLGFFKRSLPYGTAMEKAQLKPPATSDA
T1 sequence (P05556 21-798): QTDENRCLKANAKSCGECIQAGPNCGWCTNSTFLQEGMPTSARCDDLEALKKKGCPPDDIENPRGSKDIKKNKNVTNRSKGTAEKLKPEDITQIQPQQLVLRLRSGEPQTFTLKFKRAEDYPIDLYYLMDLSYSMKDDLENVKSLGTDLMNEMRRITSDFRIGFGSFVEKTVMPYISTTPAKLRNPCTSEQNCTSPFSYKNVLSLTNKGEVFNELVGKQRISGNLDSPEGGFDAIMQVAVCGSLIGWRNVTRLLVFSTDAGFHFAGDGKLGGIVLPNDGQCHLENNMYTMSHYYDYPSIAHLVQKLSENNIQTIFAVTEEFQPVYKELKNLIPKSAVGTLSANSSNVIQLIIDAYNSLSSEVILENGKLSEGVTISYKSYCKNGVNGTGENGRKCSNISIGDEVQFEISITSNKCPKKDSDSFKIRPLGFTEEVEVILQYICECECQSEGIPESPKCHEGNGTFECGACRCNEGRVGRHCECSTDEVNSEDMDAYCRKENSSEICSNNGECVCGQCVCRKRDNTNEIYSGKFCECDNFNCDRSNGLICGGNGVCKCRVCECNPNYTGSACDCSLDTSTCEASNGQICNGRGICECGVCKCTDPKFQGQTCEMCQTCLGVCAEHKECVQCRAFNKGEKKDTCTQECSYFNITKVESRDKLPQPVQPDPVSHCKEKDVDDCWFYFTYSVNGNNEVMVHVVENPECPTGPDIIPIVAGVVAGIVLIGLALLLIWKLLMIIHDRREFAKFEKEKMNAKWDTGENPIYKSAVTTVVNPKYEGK
Description: (§1) provided as a Source Data file.
(§2) (3 pictures or pasted objects on this page, not shown here)

[5] = biological target: T2, EO state of integrin αVβ1 (Homo sapiens, UniProt P05556+P06756); experiment: Intrinsic affinity for EO state of αVβ1 stabilized by 12G10 Fab; type: binding; settings: 2 µM 12G10 Fab versus basal
T2 construct: expressed in transfected cells
T2 sequence (P06756 31-889 limits assumed): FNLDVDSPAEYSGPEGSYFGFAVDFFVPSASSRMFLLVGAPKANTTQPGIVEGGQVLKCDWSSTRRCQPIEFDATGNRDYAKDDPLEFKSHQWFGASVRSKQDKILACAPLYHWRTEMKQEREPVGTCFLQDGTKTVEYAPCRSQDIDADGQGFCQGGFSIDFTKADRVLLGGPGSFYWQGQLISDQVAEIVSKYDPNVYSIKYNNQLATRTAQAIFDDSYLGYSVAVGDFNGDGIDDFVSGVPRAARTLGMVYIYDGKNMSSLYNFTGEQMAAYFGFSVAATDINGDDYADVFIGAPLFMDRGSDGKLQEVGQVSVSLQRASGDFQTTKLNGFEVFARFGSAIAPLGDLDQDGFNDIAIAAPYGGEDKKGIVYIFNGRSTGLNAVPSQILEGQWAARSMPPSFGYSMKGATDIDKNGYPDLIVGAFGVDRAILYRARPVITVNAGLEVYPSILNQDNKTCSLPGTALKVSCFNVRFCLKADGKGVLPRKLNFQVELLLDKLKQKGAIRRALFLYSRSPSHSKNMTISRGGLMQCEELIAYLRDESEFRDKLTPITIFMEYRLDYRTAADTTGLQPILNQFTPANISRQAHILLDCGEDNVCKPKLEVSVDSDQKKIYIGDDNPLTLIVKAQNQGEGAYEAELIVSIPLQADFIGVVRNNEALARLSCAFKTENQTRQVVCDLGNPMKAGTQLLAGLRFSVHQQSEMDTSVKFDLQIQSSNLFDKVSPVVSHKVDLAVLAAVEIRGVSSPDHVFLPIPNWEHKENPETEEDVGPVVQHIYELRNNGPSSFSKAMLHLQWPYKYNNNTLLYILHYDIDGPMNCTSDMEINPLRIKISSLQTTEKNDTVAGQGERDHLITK
T2 sequence (P06756 891-1048 partner limits assumed): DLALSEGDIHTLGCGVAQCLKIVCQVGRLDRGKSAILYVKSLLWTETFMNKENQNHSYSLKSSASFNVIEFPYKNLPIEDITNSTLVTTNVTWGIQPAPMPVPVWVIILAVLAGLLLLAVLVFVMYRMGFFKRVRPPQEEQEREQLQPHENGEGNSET
T2 sequence (P05556 21-798): as the sequence (P05556 21-798) above
Description: as §1, §2

[6] = test system: extended-open β1 integrin on BJ-5ta cells; experiment: β1 integrin activation: number and density of bound AF647-12G10 Fab on biotin-PEG-cholesterol immobilized cells; type: cell-based, human
Protocol: Cholesterol (CLS) linked to biotin with PEG (~13 nm) immobilizes cells on neutravidin and TGT-coated surfaces. b Cell images and AF647-12G10 Fab (20 nM) signal 1 h after seeding. Scale bar, 10 µm. c–e Cell area and 12G10 Fab signal were measured 30 min after seeding (n = 43, 55, 62, 69, 21, 29; 83, 59, 83, 92, 68, 62 cells from two independent experiments). c Close-contact enclosed area of cells. […] Fluorescent Fab signal was calibrated by analyzing stepwise signal increase due to nonspecific Fab binding to surfaces outside the area imaged with cells (Supplementary Fig. 4a). e Density of 12G10 Fab for each cell. Lines show mean ± SE. Two-sided t-test for p-values. Not significant (ns), p > 0.05.
The cells were gently harvested by washing in PBS for 1 min, incubating with 0.05% trypsin for 3 min, and then neutralizing with cell culture medium (FBS 10%). […] A Nikon Eclipse Ti microscope equipped with Xenon arc lamp, Nikon perfect focus system, custom total internal reflection fluorescence microscopy (TIRFM) module, and custom reflection interference contrast microscopy (RICM) module was driven by Elements software. […] Images were recorded using an electron-multiplying charge-coupled device (EMCCD; Andor iXon 888). […]

[7] = test system: BJ-5ta cells; experiment: Percentage of cells producing rupture signals on RGD-12pN with or without soluble cRGDfK; type: cell-based, human; settings: RGD-12pN (BHQ2-Cy3, 100 nM); soluble ligand 100 µM; n = 4
Description: Source data are provided as a Source Data file. […]

[8] = test system: integrin α5β1 on intact cells; settings: ref Li et al., 2017; read-out: affinity to α5β1 on intact cells; cited from earlier work
Description: For inhibition studies we used a different subset of inhibitory IPI and Biogen Fabs with RGD-mimetic heavy chain CDR3 sequences (Supplementary Table 1). […] They show selectivities for αVβ1, αVβ3 and αVβ5 ranging from 160 fold to 2000 fold. […] As we show in Fig.5, even though α5β1 has the highest 316 expression level among all the RGD-binding integrins expressed on BJ-5ta cell, it could not mediate cell 317 adhesion and spreading on the cyclo- ...

Compound: cyclic-ACRGDGWCGK (disulfide)
- Kd [1]: 2.2 ± 0.5 nM

Compound: GRRGDLATIHGGK [GRRGD-TGT]
- spreading on linear RGD-TGT (in words) [2]: no spreading for weak TGTs, with tension tolerance below 40 pN

Compound: N=C(N)NCCC[C@@H]1NC(=O)[C@H](CCCCN)NC(=O)[C@@H](Cc2ccccc2)NC(=O)[C@H](CC(=O)O)NC(=O)CNC1=O [cRGDfK, cyclo[Arg-Gly-Asp-D-Phe-Lys]]
- tension threshold for cell spreading ([3]; 1 h, nominal Ttol): > 33 pN
- spread cells (fraction), sheet 1c ([3]; TGT 1 nM): 0.00565
- spread cells (fraction), sheet 1c ([3]; TGT 3 nM): 0.03764
- spread cells (fraction), sheet 1c ([3]; TGT 10 nM): 0.4242
- spread cells (fraction), sheet 1c ([3]; TGT 30 nM): 0.8968
- spread cells (fraction), sheet 1c ([3]; TGT 100 nM): 0.9524
- Spread cells on TGT, 12pN ([3]; Ttol 12pN, 1 h, mean, SE in own column, n = 3 independent experiments, given as fraction): 0.00901
- Spread cells on TGT, 23pN ([3]; Ttol 23pN, 1 h, mean, n = 3, given as fraction): 0.05
- Spread cells on TGT, 33pN ([3]; Ttol 33pN, 1 h, mean, n = 3, given as fraction): 0.0778
- Spread cells on TGT, 43pN ([3]; Ttol 43pN, 1 h, mean, n = 3, given as fraction): 0.8932
- Spread cells on TGT, 54pN ([3]; Ttol 54pN, 1 h, mean, n = 3, given as fraction): 0.9524
- EO affinity over basal affinity, α5β1 [4]: 7000 fold
- EO affinity over basal affinity, αVβ1 [5]: 60 fold
- force needed for activation of β1 integrin to high affinity state [6]: less than 12 pN
- rupture signal with soluble cRGDfK (in words) [7]: No cellproduced a significant rupture signal

Compound: fibronectin
- Kd [8]: 1100 nM
